# Source: US20110207759A1, “METHOD FOR TREATMENT OF ATHEROSCLEROTIC DISEASE” (priority 2010, published 2011)
# Read-outs that look alike come from different tables or passages of the source.
# Columns and labels:
# [1] = tested on: statin-treated patients with atherosclerotic coronary or vascular disease or coronary risk equivalent; settings: for Deaths: of 176 ezetimibe / of 187 niacin enrolled
# Text: (§1) Endpoints: The predefined primary endpoint was the between-group difference in the change in mean CIMT after 14 months. Secondary endpoints included the change in lipid values, a composite endpoint consisting of major adverse cardiovascular events (coronary heart disease death, myocardial infarction, myocardial revascularization, admission to the hospital for an acute coronary syndrome), drug discontinuation due to adverse effects, and health-related quality of life (Schweikert et al., 2008). Clinical cardiovascular endpoints were adjudicated by consensus of two members of the data advisory committee blinded to treatment assignment.
# [2] = tested on: statin-treated patients with atherosclerotic coronary or vascular disease or coronary risk equivalent; test: Major adverse cardiovascular events (composite clinical endpoint); type: in vivo, human; settings: 14-month study; for Cardiovascular death (number of events) / Coronary revascularization procedure (number of events) / Myocardial infarction (number of events) / Subjects experiencing a composite clinical cardiovascular endpoint (major adverse cardiovascular events): ezetimibe N=165, niacin N=160
# Text: as §1
# [3] = tested on: statin-treated patients with atherosclerotic coronary or vascular disease or coronary risk equivalent; test: Fasting plasma lipids, glucose and C-reactive protein during treatment; settings: for HDL-C / LDL-C / Total Cholesterol / Final change in HDL-C / Final change in LDL-C: added to statin; for HDL-C / LDL-C / Total Cholesterol / Total cholesterol, final values / HDL-C, final values / LDL-C, final values: mean ± SD; for C-reactive protein / Triglycerides: median (inter-quartile range); for Change from baseline in LDL-C and triglycerides: 315 patients, baseline to final; for Final change in HDL-C / Final change in LDL-C: baseline to 14 months; for Total cholesterol, final values / HDL-C, final values / LDL-C, final values / Triglycerides, final values / hsCRP, final values: study completion; for Total cholesterol, final values: n=315 (ezetimibe 161, niacin 154), last observation carried forward; for HDL-C, final values / LDL-C, final values / Triglycerides, final values / hsCRP, final values: n=315; for Triglycerides, final values / hsCRP, final values: median (interquartile range);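 for all read-outs here: plasma drawn after an overnight fast, LDL-C determined by direct assay and C-reactive protein by high-sensitivity immunoturbidimetry with monoclonal anti-CRP antibodies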
# Description: Study population: This prospective, randomized, parallel group, open-label, blinded endpoint study was conducted at two centers, Walter Reed Army Medical Center, a university-affiliated, suburban, tertiary care military medical center, and the Washington Adventist Hospital, a private tertiary care hospital located in Takoma Park, Md. The institutional review boards of each facility approved the study, and all volunteers provided written, informed consent. Included subjects were men and women ≧30 years old with either known atherosclerotic coronary or vascular disease (N=279) or a coronary risk equivalent diagnosis including diabetes mellitus (N=38), a 10-year coronary heart disease Framingham risk score ≧20% (N=26), or a coronary calcium score above 200 or 400 (N=20) for women and men respectively.
# Randomization: Three hundred sixty-three patients were enrolled in the trial. […] Randomization was performed using a computer-generated sequence of random numbers. There were no protocol-directed changes in statin medications during the study.
# Cardiovascular risk variables: Following an overnight fast, laboratory measurements included plasma total cholesterol, LDL-C, HDL-C, triglycerides, C-reactive protein, liver-associated enzymes and glucose at baseline, 2, 8 and 14 months. LDL-C was measured using a direct assay. C-reactive protein was measured with a high-sensitivity, commercially available immunoturbidimetric assay, which uses monoclonal antibodies to CRP (Roche Cobas® Integra, Switzerland).
# [4] = tested on: statin-treated patients with atherosclerotic coronary or vascular disease or coronary risk equivalent; test: Carotid B-mode ultrasound: change in carotid intima-media thickness (CIMT), ARBITER 6-HALTS trial; type: in vivo, human; settings: for Change in CIMT: 8 and 14 months; for Change in CIMT / Change in CIMT - Mean CIMT / Change in CIMT - Max CIMT: added to statin; for Change in CIMT - Mean CIMT / Change in CIMT - Max CIMT / Change in mean CIMT / Change from baseline CIMT, maximal thickness / Change from baseline CIMT, mean thickness: mean ± SE; for Change in mean CIMT: LOCF; for Effect of increased cumulative drug exposure on CIMT: exploratory analysis, quartiles of adherence × dose × duration; for Change from baseline CIMT, maximal thickness / Change from baseline CIMT, mean thickness: last observation carried forward, all subjects (ezetimibe n=161, niacin n=154)
# Text: as §1
# Carotid B-mode Ultrasound: Carotid ultrasonography was performed using a Sonosite Micromax ultrasound system (Bothell, Wash.) equipped with a broadband linear array probe (13 MHz). Participants underwent 3 ultrasound examinations during the study at baseline, 8 and 14 months. Except for the initial 20 baseline examinations performed at the Washington Adventist site, a single sonographer performed all ultrasound examinations. Images were obtained of the far wall of the distal 1 centimeter of the right and left common carotid arteries in the anterior and lateral views. A total of eight images (2 complete sets of 4 separate images) were obtained with standardized ultrasound settings. Baseline CIMT images were used to localize the site of imaging in serial images. Digitized still images from an electrocardiographically-defined diastolic frame were quantitated off-line. A single observer unaware of treatment assignment and patient identification performed measurements of mean and maximal CIMT. Focal atherosclerotic plaque was excluded from the site of CIMT measurement. All measurements were performed in duplicate using an automated border detection algorithm. […] Reader drift was evaluated using a standard image set (10 CIMT images from different patients) which the sonographer serially quantified every 6 months.
# Statistical analysis: The primary endpoint was the change in mean CIMT from baseline to 14 months between the niacin and ezetimibe treatment groups. […] Clinical and carotid imaging data were held in separate databases for the duration of the trial. Between-group data for continuous variables were assessed with a t-test for independent variables or a Mann-Whitney U test as appropriate. A chi-square test was used for categorical variables. Kaplan-Meier survival analysis was performed using the log rank test. All statistical analyses were performed using SPSS software (version 16, SPSS Inc., Chicago, Ill.). Values are reported as mean±standard deviation or standard error, and median (inter-quartile range) for non-normal distributions. A 2-sided P value of 0.05 was considered statistically significant.
# Study design: The study design prespecified the performance of a blinded, interim analysis according to the conservative method of O'Brien and Fleming with an alpha spending function (O'Brien et al. 1979). This was conducted after 180 subjects (60% of the planned sample size) completed the study. An independent data advisory committee evaluated the endpoint data without knowledge of treatment assignment. No formal, a priori stopping boundaries were set for the trial.
# [5] = both, human, in vivo, 14 months
# [6] = 2 Months, 208 subjects who completed 14 month study
# [7] = 8 months from baseline, 208 completers (ezetimibe N=111, niacin N=97)
# [8] = 8 months from baseline, 208 completers
# [9] = 14 months from baseline, completing subjects (ezetimibe n=111, niacin n=97)
# [10] = Quartile 1 (lowest) of cumulative drug exposure (adherence × dose × treatment duration)
# [11] = Quartile 2 of cumulative drug exposure
# [12] = Quartile 3 of cumulative drug exposure
# [13] = Quartile 4 (highest) of cumulative drug exposure, 14 months
structure (smiles),measurement,setting,value
"O=C(O)c1cccnc1 [Niacin, niacin]",Cutaneous flushing reported,[1]; [5],36.1%
same,Subjects who did not complete the study,[1]; in vivo,28
same,Subjects who did not complete the study (percent),[1]; in vivo,14.9%
same,Withdrawals,[1]; in vivo,27
same,Withdrawals with adverse drug effects cited as the reason,[1]; of 9 ezetimibe / of 27 niacin withdrawals,17
same,Deaths,[1],1
same,Incidence of major adverse cardiovascular events,[2],1.3%
same,Cardiovascular death (number of events),[2],1
same,Coronary revascularization procedure (number of events),[2],0
same,Myocardial infarction (number of events),[2],1
same,Subjects experiencing a composite clinical cardiovascular endpoint (major adverse cardiovascular events),[2],2 subjects
same,HDL-C,"[3]; 2 Months, 208 completers",48.9 ± 10.6 mg/dL
same,LDL-C,"[3]; 2 Months, 208 completers",66.2 ± 18.1 mg/dL
same,C-reactive protein,"[3]; 2 Months, 208 completers",1.1 (0.6-3.1) mg/L
same,Triglycerides,"[3]; 2 Months, 208 completers",88 (69-125) mg/dL
same,Total Cholesterol,[3]; [6],131.0 ± 22.9 mg/dL
same,HDL-C,"[3]; 8 Months, 208 completers",50.7 ± 11.6 mg/dL
same,LDL-C,"[3]; 8 Months, 208 completers",67.1 ± 19.5 mg/dL
same,Total Cholesterol,"[3]; 8 Months, 208 completers",133.6 ± 25.5 mg/dL
same,C-reactive protein,"[3]; 8 Months, 208 completers",1.1 (0.5-2.4) mg/L
same,Triglycerides,"[3]; 8 Months, 208 completers",88 (66-123) mg/dL
same,HDL-C,"[3]; 14 Months, 208 completers",49.9 ± 12.2 mg/dL
same,LDL-C,"[3]; 14 Months, 208 completers",70.5 ± 23.9 mg/dL
same,Total Cholesterol,"[3]; 14 Months, 208 completers",136.7 ± 29.3 mg/dL
same,C-reactive protein,"[3]; 14 Months, 208 completers",1.0 (0.4-2.9) mg/L
same,Triglycerides,"[3]; 14 Months, 208 completers",90 (69-138) mg/dL
same,Change from baseline in LDL-C and triglycerides,[3],Significant reductions
same,Final change in HDL-C,[3]; 208 completers,+7.5±9.2 mg/dL
same,Final change in LDL-C,[3]; 208 completers,-10.0 ± 24.5 mg/dL
same,"Total cholesterol, final values",[3],137.6 ± 30.5 mg/dL
same,"HDL-C, final values",[3],49.7 ± 11.5 mg/dL
same,"LDL-C, final values",[3],72.7 ± 25.9 mg/dL
same,"Triglycerides, final values",[3],91 (69-134) mg/dl
same,"hsCRP, final values",[3],1.0 (0.4-2.3) mg/l
same,Change in CIMT,[4]; 208 completers,significant reduction in mean and maximal CIMT (regression)
same,Change in CIMT - Mean CIMT,[4]; [7],−0.0102 ± 0.0030 mm
same,Change in CIMT - Max CIMT,[4]; [8],−0.0128 ± 0.0043 mm
same,Change in CIMT - Max CIMT,[4]; [9],−0.0181 ± 0.0050 mm
same,Change in CIMT - Mean CIMT,[4]; [9],−0.0142 ± 0.0041 mm
same,Change in CIMT - Mean CIMT,"[4]; 14 months from baseline, completing subjects (ezetimibe n=111, niacin n=97), listed as ERN",−0.0142±0.0041 mm
same,Change in mean CIMT,[4]; [10],−0.0052 ± 0.0041 mm
same,Change in mean CIMT,[4]; [11],−0.0073 ± 0.0027 mm
same,Change in mean CIMT,[4]; [12],−0.0148 ± 0.0060 mm
same,Change in mean CIMT,[4]; [13],−0.0128 ± 0.0078 mm
same,Change in mean CIMT,"[4]; Quartile 4 (highest) of cumulative drug exposure, 14 months, listed as ERN",−0.0128±0.0078 mm
same,Effect of increased cumulative drug exposure on CIMT,[4],regression of CIMT
same,"Change from baseline CIMT, maximal thickness",[4],−0.0124 ± 0.0036 mm
same,"Change from baseline CIMT, mean thickness",[4],−0.0102 ± 0.0026 mm
same,"Change from baseline CIMT, maximal thickness",[4]; listed as niacin,−0.0124±0.0036 mm
same,"Change from baseline CIMT, mean thickness",[4]; listed as niacin,−0.0102±0.0026 mm
"O=C1[C@H](CC[C@H](O)c2ccc(F)cc2)[C@@H](c2ccc(O)cc2)N1c1ccc(F)cc1 [Ezetimibe, ezetimibe]",Withdrawals with adverse drug effects cited as the reason,[1]; [5],3
same,Subjects who did not complete the study,[1]; in vivo,16
same,Subjects who did not complete the study (percent),[1]; in vivo,9.1%
same,Withdrawals,[1]; in vivo,9
same,Deaths,[1],7
same,Incidence of major adverse cardiovascular events,[2],5.8%
same,Cardiovascular death (number of events),[2],5
same,Coronary revascularization procedure (number of events),[2],3
same,Myocardial infarction (number of events),[2],3
same,Subjects experiencing a composite clinical cardiovascular endpoint (major adverse cardiovascular events),[2],9 subjects
same,HDL-C,"[3]; 2 Months, 208 completers",42.2 ± 8.5 mg/dL
same,LDL-C,"[3]; 2 Months, 208 completers",60.1 ± 16.1 mg/dL
same,C-reactive protein,"[3]; 2 Months, 208 completers",1.2 (0.6-3.0) mg/L
same,Triglycerides,"[3]; 2 Months, 208 completers",100 (78-140) mg/dL
same,Total Cholesterol,[3]; [6],120.2 ± 20.6 mg/dL
same,HDL-C,"[3]; 8 Months, 208 completers",41.1 ± 9.0 mg/dL
same,LDL-C,"[3]; 8 Months, 208 completers",61.6 ± 17.2 mg/dL
same,Total Cholesterol,"[3]; 8 Months, 208 completers",122.4 ± 21.5 mg/dL
same,C-reactive protein,"[3]; 8 Months, 208 completers",1.3 (0.6-2.9) mg/L
same,Triglycerides,"[3]; 8 Months, 208 completers",107 (78-153) mg/dL
same,HDL-C,"[3]; 14 Months, 208 completers",40.5 ± 7.9 mg/dL
same,LDL-C,"[3]; 14 Months, 208 completers",66.1 ± 18.8 mg/dL
same,Total Cholesterol,"[3]; 14 Months, 208 completers",127.8 ± 22.8 mg/dL
same,C-reactive protein,"[3]; 14 Months, 208 completers",0.6 (0.6-3.1) mg/L
same,Triglycerides,"[3]; 14 Months, 208 completers",113 (84-150) mg/dL
same,Change from baseline in LDL-C and triglycerides,[3],Significant reductions
same,Final change in HDL-C,[3]; 208 completers,-2.8 ± 5.7 mg/dL
same,Final change in LDL-C,[3]; 208 completers,-17.6 ± 20.1 mg/dL
same,"Total cholesterol, final values",[3],127.5 ± 24.8 mg/dL
same,"HDL-C, final values",[3],41.1 ± 8.5 mg/dL
same,"LDL-C, final values",[3],65.5 ± 20.0 mg/dL
same,"Triglycerides, final values",[3],111 (82-144) mg/dl
same,"hsCRP, final values",[3],1.0 (0.5-2.9) mg/l
same,Change in CIMT,[4]; 208 completers,No net change
same,Change in CIMT - Mean CIMT,[4]; [7],0.0014 ± 0.0020 mm
same,Change in CIMT - Max CIMT,[4]; [8],−0.0028 ± 0.0031 mm
same,Change in CIMT - Max CIMT,[4]; [9],−0.0009 ± 0.0039 mm
same,Change in CIMT - Mean CIMT,[4]; [9],−0.0007 ± 0.0035 mm
same,Change in mean CIMT,[4]; [10],−0.0071 ± 0.0031 mm
same,Change in mean CIMT,[4]; [11],−0.0051 ± 0.0036 mm
same,Change in mean CIMT,[4]; [12],−0.0009 ± 0.0067 mm
same,Change in mean CIMT,[4]; [13],0.0067 ± 0.0059 mm
same,Change in mean CIMT,"[4]; Quartile 4 (highest) of cumulative drug exposure, 14 months, listed as ezetimibe",0.0067±0.0059 mm
same,Effect of increased cumulative drug exposure on CIMT,[4],progression of CIMT
same,"Change from baseline CIMT, maximal thickness",[4],−0.0005 ± 0.0029 mm
same,"Change from baseline CIMT, mean thickness",[4],−0.0016 ± 0.0024 mm
same,"Change from baseline CIMT, maximal thickness",[4]; listed as ezetimibe,−0.0005±0.0029 mm
same,"Change from baseline CIMT, mean thickness",[4]; listed as ezetimibe,−0.0016±0.0024 mm
